Columns and labels:
HIV-1(IIIB) = assay: inhibition of virus-induced cytopathicity in MT-4 cells, HIV-1 (IIIB); type: cell-based; details: for EC50: MT-4 cells, viral cytopathic effect, 5 days post-infection
HIV-2 (EHO) = assay: inhibition of virus-induced cytopathicity in MT-4 cells, HIV-2 (EHO); type: cell-based; details: Human immunodeficiency virus 2, MT4, 120 h, read-out: EC50 HIV-2 EHO
[1] = cytotoxicity, viability of mock-infected cells; type: cell-based; details: human, viability of mock-infected MT-4 cells
Method: Cytotoxicity of these compounds was determined in parallel by measuring the viability of mock-infected MT-4 or C8166 cells 5 days post-infection. The antiviral activity and cytotoxicity data, including average values and standard deviations for at least two separate experiments, are depicted in Table 2, wherein: CC50 represents the 50% cytotoxic concentration, i.e. the concentration that reduces by 50% the viability of MT-4 cells.

HIV-1 NL43/DS5000 = assay: microbe, parasite or virus in culture; type: cell-based
HIV-1 NL43/AMD3100 = assay: microbe, parasite or virus in culture; type: cell-based
HIV-1 L4 = type: cell-based
HIV-1 L6 = type: cell-based; details: L6 versus wild type strain L1
[2] = tested on: HIV-1 (NDK, NL4.3 and L1), HIV-2 (ROD and EHO) and SIV (MAC251); assay: antiviral activity against several HIV and SIV strains; type: cell-based; details: range over HIV-1 (NDK, NL4.3 and L1)
[3] = tested on: HIV-1 strains L2, L4 and L6; assay: antiviral activity against multi-drug resistant (MddNR) HIV-1 strains; type: cell-based; details: strains L2, L4 and L6 versus parental strain L1
[4] = target: T1, Recombinant HIV-1 RT (HXB2) (Human immunodeficiency virus type 1 group M subtype B, UniProt P04585); assay: inhibition of HIV-1 reverse transcriptase enzymatic activity; type: biochemical
T1 construct: Recombinant HIV-1 RT (HXB2) was obtained as described by Jonckheere et al; made in house
Source text: Poly(rC).oligo(dG) and poly (rA).oligo(dT) were used as template-primers, and 8-[^3H]-dGTP and [^3H]-dTTP were used as radiolabelled substrates.

[5] = Human immunodeficiency virus 1, NL43

In the case of O=[N+]([O-])c1ccc(C2c3c(O)nc(S)nc3Oc3nc(S)nc(O)c32)cc1 [compound H, 5-(4-nitrophenyl)-2,8-dithiol-4,6-dihydroxy-5H-pyrano[2,3-d:6,5-d′]dipyrimidine], the EC50 (HIV-1(IIIB); Human immunodeficiency virus 1, IIIB, MT4, 120 h) is reported as 11.4 µM, the EC50 (HIV-1(IIIB)) is reported as 8.9 ± 0.7 µM and the “activity against the replication of HIV-1(IIIB)” value (HIV-1(IIIB); in words) is reported as “active”. For the same molecule, the EC50 (HIV-2 (EHO)) was 3.7 ± 0.1 µM, the CC50 at 5 days [1] was 121 µM and the EC50 (HIV-1 NL43/DS5000; [5]) was 19.4 ± 1.4 µM. The “fold increase in EC50” value (HIV-1 NL43/DS5000; NL43/DS5000 versus wild type strain NL4.3) was 1.3, the “activity against HIV-1 strain resistant to dextran sulfate” value (HIV-1 NL43/DS5000; in words) was “active” and the EC50 (HIV-1 NL43/AMD3100; [5]) was 19.1 ± 1.4 µM. The “fold increase in EC50” value (HIV-1 NL43/AMD3100; NL43/AMD3100 versus wild type strain NL4.3) was 1.3, the “activity against HIV-1 strain resistant to bicyclam” value (HIV-1 NL43/AMD3100; in words) was “active” and the EC50 (HIV-1 L4; Human immunodeficiency virus 1) was 11.7 ± 0.7 µM. For the same molecule, the “fold increase in EC50” value (HIV-1 L4; L4 versus wild type strain L1) was 3.2, the “fold increase in EC50” value (HIV-1 L6) was 2.8 and the EC50 [2] was 5.5 to 30 µM. For the same molecule, the “reduction in inhibitory potency” value [3] was ≤ 3 fold, the IC50 ([4]; IC50 Poly(A).oligo(dT), template-primer poly(A).oligo(dT)) was 24.6 ± 7.2 µM and the IC50 ([4]; IC50 poly(C).oligo(dG), template-primer poly(C).oligo(dG)) was 4.8 ± 2.2 µM.
